Results taken from PubChem BioAssay (NCI).
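These data come from cells grown in 96-well plates and exposed to compound for 48 hours at five concentrations. At the TGI there is no net growth.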

Tests used:
Test in all cases: DTP human tumour cell line panel, 48 h
[1] = test system: UACC-62 melanoma
[2] = test system: SF-539 CNS
[3] = test system: KM12 colon
[4] = test system: 786-0 renal
[5] = test system: MALME-3M melanoma
[6] = test system: MOLT-4 leukemia
[7] = test system: SK-MEL-28 melanoma
[8] = test system: TK-10 renal
[9] = test system: SW-620 colon
[10] = test system: LOX IMVI melanoma
[11] = test system: M14 melanoma
[12] = test system: U251 CNS
[13] = test system: HCT-15 colon
[14] = test system: OVCAR-3 ovarian
[15] = test system: DU-145 prostate
[16] = test system: BT-549 breast
[17] = test system: EKVX NSCLC
[18] = test system: MDA-MB-231 breast
[19] = test system: A498 renal
[20] = test system: UACC-257 melanoma
[21] = test system: A549 NSCLC
[22] = test system: HOP-62 NSCLC
[23] = test system: CAKI-1 renal
[24] = test system: COLO 205 colon
[25] = test system: HT29 colon
[26] = test system: ACHN renal
[27] = test system: CCRF-CEM leukemia
[28] = test system: SF-268 CNS
[29] = test system: SK-OV-3 ovarian
[30] = test system: SR leukemia
[31] = test system: NCI-H23 lung
[32] = test system: RPMI-8226 leukemia
[33] = test system: MCF7 breast
[34] = test system: OVCAR-5 ovarian
[35] = test system: HS 578T breast
[36] = test system: HCT-116 colon
[37] = test system: SNB-75 CNS
[38] = test system: MDA-MB-435
[39] = test system: PC-3 prostate
[40] = test system: OVCAR-4 ovarian
[41] = test system: MDA-N
[42] = test system: HCC-2998 colon
[43] = test system: HL-60(TB) leukemia
[44] = test system: K-562 leukemia
[45] = test system: T-47D breast
[46] = test system: SNB-19 CNS
[47] = test system: SK-MEL-5 melanoma
[48] = test system: OVCAR-8 ovarian
[49] = test system: NCI-H460 lung
[50] = test system: SF-295 CNS
[51] = test system: SK-MEL-2 melanoma
[52] = test system: NCI-H522 lung
[53] = test system: NCI-H226 lung
[54] = test system: SN12C renal
[55] = test system: UO-31 renal
[56] = test system: NCI/ADR-RES ovarian
[57] = test system: IGROV1 ovarian
[58] = test system: RXF 393 renal
[59] = test system: HOP-92 NSCLC

With `Cc1cccc(NC(=O)/C=C/c2ccccc2)c1C` the TGI [1] was greater than 100 µM, the TGI [2] was greater than 100 µM and the TGI [3] was greater than 100 µM. For the same compound, the TGI [4] was greater than 100 µM, the TGI [5] was greater than 100 µM and the TGI [6] was greater than 100 µM. The TGI [7] was greater than 100 µM, the TGI [8] was greater than 100 µM and the TGI [9] was greater than 100 µM. It also gave a TGI [10] greater than 100 µM, a TGI [11] greater than 100 µM and a TGI [12] greater than 100 µM. It also gave a TGI [13] greater than 100 µM, a TGI [14] greater than 100 µM and a TGI [15] greater than 100 µM. The TGI [16] was greater than 100 µM, the TGI [17] was greater than 100 µM and the TGI [18] was greater than 100 µM. The TGI [19] was greater than 100 µM, the TGI [20] was greater than 100 µM and the TGI [21] was greater than 100 µM. The TGI [22] was greater than 100 µM, the TGI [23] was greater than 100 µM and the TGI [24] was greater than 100 µM. It also gave a TGI [25] greater than 100 µM, a TGI [26] greater than 100 µM and a TGI [27] greater than 100 µM. For the same compound, the TGI [28] was greater than 100 µM, the TGI [29] was greater than 100 µM and the TGI [30] was greater than 100 µM. The TGI [31] was greater than 100 µM, the TGI [32] was greater than 100 µM and the TGI [33] was greater than 100 µM. For the same compound, the TGI [34] was greater than 100 µM, the TGI [35] was greater than 100 µM and the TGI [36] was greater than 100 µM. It also gave a TGI [37] greater than 100 µM, a TGI [38] greater than 100 µM and a TGI [39] greater than 100 µM. For the same compound, the TGI [40] was greater than 100 µM, the TGI [41] was greater than 100 µM and the TGI [42] was greater than 100 µM. The TGI [43] was greater than 100 µM, the TGI [44] was greater than 100 µM and the TGI [45] was greater than 100 µM. For the same compound, the TGI [46] was greater than 100 µM, the TGI [47] was greater than 100 µM and the TGI [48] was greater than 100 µM. It also gave a TGI [49] greater than 100 µM, a TGI [50] greater than 100 µM and a TGI [51] greater than 100 µM. It also gave a TGI [52] greater than 100 µM, a TGI [53] greater than 100 µM and a TGI [54] greater than 100 µM.
`O=C1c2ccccc2-c2c1c(-c1ccc(O)cc1O)nc1ccc3ccccc3c21` gave a TGI [1] greater than 100 µM, a TGI [2] greater than 100 µM and a TGI [3] greater than 100 µM. The TGI [4] was greater than 100 µM, the TGI [5] was greater than 100 µM and the TGI [6] was greater than 100 µM. It also gave a TGI [7] greater than 100 µM, a TGI [9] greater than 100 µM and a TGI [11] greater than 100 µM. The TGI [12] was greater than 100 µM, the TGI [13] was greater than 100 µM and the TGI [55] was greater than 100 µM. The TGI [15] was greater than 100 µM, the TGI [16] was greater than 100 µM and the TGI [17] was greater than 100 µM. The TGI [56] was greater than 100 µM, the TGI [18] was greater than 100 µM and the TGI [19] was greater than 100 µM. It also gave a TGI [20] greater than 100 µM, a TGI [21] greater than 100 µM and a TGI [22] greater than 100 µM. The TGI [23] was greater than 100 µM, the TGI [24] was greater than 100 µM and the TGI [25] was greater than 100 µM. For the same compound, the TGI [26] was greater than 100 µM, the TGI [27] was greater than 100 µM and the TGI [28] was greater than 100 µM. The TGI [29] was greater than 100 µM, the TGI [31] was greater than 100 µM and the TGI [32] was greater than 100 µM. The TGI [33] was greater than 100 µM, the TGI [34] was greater than 100 µM and the TGI [35] was 75.2 µM. For the same compound, the TGI [36] was greater than 100 µM, the TGI [37] was greater than 100 µM and the TGI [38] was greater than 100 µM. For the same compound, the TGI [39] was greater than 100 µM, the TGI [40] was greater than 100 µM and the TGI [41] was greater than 100 µM. For the same compound, the TGI [42] was greater than 100 µM, the TGI [44] was greater than 100 µM and the TGI [45] was greater than 100 µM. For the same compound, the TGI [46] was greater than 100 µM, the TGI [48] was greater than 100 µM and the TGI [49] was greater than 100 µM. For the same compound, the TGI [50] was greater than 100 µM, the TGI [51] was greater than 100 µM and the TGI [53] was greater than 100 µM. It also gave a TGI [54] greater than 100 µM.
Compound `C=CCNC(=O)N1CC(C)C(=O)Nc2ccccc21` (centres undefined) has a TGI [2] greater than 100 µM, a TGI [3] greater than 100 µM and a TGI [4] greater than 100 µM. The TGI [5] was greater than 100 µM, the TGI [6] was greater than 100 µM and the TGI [7] was greater than 100 µM. The TGI [8] was greater than 100 µM, the TGI [9] was greater than 100 µM and the TGI [10] was greater than 100 µM. The TGI [11] was greater than 100 µM, the TGI [12] was greater than 100 µM and the TGI [13] was greater than 100 µM. It also gave a TGI [55] greater than 100 µM, a TGI [14] greater than 100 µM and a TGI [15] greater than 100 µM. For the same compound, the TGI [16] was greater than 100 µM, the TGI [17] was greater than 100 µM and the TGI [18] was greater than 100 µM. It also gave a TGI [19] greater than 100 µM, a TGI [20] greater than 100 µM and a TGI [57] greater than 100 µM. The TGI [21] was greater than 100 µM, the TGI [22] was greater than 100 µM and the TGI [23] was greater than 100 µM. The TGI [24] was greater than 100 µM, the TGI [25] was greater than 100 µM and the TGI [26] was greater than 100 µM. It also gave a TGI [27] greater than 100 µM, a TGI [28] greater than 100 µM and a TGI [29] greater than 100 µM. The TGI [30] was greater than 100 µM, the TGI [31] was greater than 100 µM and the TGI [32] was greater than 100 µM. It also gave a TGI [58] greater than 100 µM, a TGI [33] greater than 100 µM and a TGI [34] greater than 100 µM. It also gave a TGI [35] greater than 100 µM, a TGI [59] greater than 100 µM and a TGI [36] greater than 100 µM. The TGI [38] was greater than 100 µM, the TGI [39] was greater than 100 µM and the TGI [40] was greater than 100 µM. For the same compound, the TGI [41] was greater than 100 µM, the TGI [42] was greater than 100 µM and the TGI [43] was greater than 100 µM. It also gave a TGI [44] greater than 100 µM, a TGI [45] greater than 100 µM and a TGI [46] greater than 100 µM. It also gave a TGI [47] greater than 100 µM, a TGI [48] greater than 100 µM and a TGI [49] greater than 100 µM. For the same compound, the TGI [50] was greater than 100 µM, the TGI [51] was greater than 100 µM and the TGI [52] was greater than 100 µM. It also gave a TGI [53] greater than 100 µM and a TGI [54] greater than 100 µM.
